Patent publication US20120165310A1, “ETHER DERIVATIVES OF BICYCLIC HETEROARYLS” (NOVARTIS AG, priority 2009, published 2012)

target: T1, IGF-1R (Homo sapiens, UniProt P08069); test: Cellular IGF-1R assay: capture ELISA (MSD) of receptor phosphorylation in Hek293 cells; assay type: cell-based; settings: Hek293-IGF1R cells, 1 h pre-incubation, 10 min IGF stimulation, pIGF1R capture ELISA
T1 construct: expressed in transfected cells; host or cells: Hek293 (Hek293-IGF1R)
Outline: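 IC50 from 4-parameter fit of IGF1R phosphorylation, normalised to IGF-stimulated and unstimulated controls, measured by MSD capture ELISA on lysates. Hek293-IGF1R cells in starvation medium got compound 1 h (top 10 μM, 3-fold steps, 0.1% DMSO) before a 10 min pulse of 1.0 ng/μL IGF.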

T1 sequence (P08069 31-1367): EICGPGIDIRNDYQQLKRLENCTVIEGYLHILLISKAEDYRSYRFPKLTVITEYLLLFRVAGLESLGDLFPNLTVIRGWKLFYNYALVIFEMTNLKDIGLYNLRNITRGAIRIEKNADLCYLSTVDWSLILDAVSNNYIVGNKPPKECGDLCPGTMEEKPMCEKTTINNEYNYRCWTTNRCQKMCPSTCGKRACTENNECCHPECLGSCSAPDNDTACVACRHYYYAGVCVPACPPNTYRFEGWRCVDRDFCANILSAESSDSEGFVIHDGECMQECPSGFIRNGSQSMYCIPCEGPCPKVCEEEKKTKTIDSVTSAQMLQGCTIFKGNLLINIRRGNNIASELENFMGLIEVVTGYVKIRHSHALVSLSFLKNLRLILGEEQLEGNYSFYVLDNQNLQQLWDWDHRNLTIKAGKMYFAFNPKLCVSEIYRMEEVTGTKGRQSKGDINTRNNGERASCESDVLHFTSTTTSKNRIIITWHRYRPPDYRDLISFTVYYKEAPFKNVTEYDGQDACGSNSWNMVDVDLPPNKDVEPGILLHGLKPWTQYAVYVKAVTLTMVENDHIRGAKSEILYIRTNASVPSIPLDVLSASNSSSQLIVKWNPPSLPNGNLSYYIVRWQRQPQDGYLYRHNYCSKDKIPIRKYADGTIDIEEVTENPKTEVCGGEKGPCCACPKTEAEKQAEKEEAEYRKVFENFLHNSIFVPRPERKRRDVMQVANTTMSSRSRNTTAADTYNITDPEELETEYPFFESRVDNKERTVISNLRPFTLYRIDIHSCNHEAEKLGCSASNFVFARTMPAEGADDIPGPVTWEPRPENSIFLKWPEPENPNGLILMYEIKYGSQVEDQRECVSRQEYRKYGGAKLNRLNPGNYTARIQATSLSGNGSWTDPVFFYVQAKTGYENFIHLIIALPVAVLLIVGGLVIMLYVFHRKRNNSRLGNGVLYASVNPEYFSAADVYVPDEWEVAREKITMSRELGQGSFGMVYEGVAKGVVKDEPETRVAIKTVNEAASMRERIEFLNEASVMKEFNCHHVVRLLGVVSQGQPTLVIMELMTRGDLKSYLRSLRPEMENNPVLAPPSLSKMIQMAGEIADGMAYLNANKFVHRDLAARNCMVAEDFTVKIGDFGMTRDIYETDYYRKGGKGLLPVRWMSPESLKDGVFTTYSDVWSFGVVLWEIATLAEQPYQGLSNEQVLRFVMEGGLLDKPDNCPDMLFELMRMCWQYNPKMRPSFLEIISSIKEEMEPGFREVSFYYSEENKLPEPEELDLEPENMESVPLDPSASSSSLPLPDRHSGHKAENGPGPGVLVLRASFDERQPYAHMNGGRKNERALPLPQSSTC

Row | Molecule | IC50
1 | CN1CCN(C[C@H]2C[C@@H](n3cc(-c4cccc(OCC56CCC(CC5)O6)c4)c4c(N)ncnc43)C2)CC1=O (relative stereo) [Example 210, 4-(cis-3-{4-Amino-5-[3-(7-oxa-bicyclo[2.2.1]hept-1-ylmethoxy)-phenyl]-pyrrolo[2,3-d]pyrimidin-7-yl}-cyclobutylmethyl)-1-methyl-piperazin-2-one] | 115 to 194 nM
2 | 7-[cis-3-(N-methylcarboxy-amino-methyl)-cyclobutyl]-5-3-(7-oxa-bicyclo[2.2.1]hept-1-ylmethoxy)-phenyl]-7H-pyrrolo[2,3-d]pyrimidin-4-ylamine [Example 177] | 138 nM
3 | NC(=O)[C@@H]1[C@H]2CC[C@H](C2)N1CC1CC(n2cc(-c3cccc(OCC45CCC(CC4)O5)c3)c3c(N)ncnc32)C1 (stereo partly drawn) [Example 104, (1R,3S,4S)-2-(((1S,3R)-3-(5-(3-(7-oxabicyclo[2.2.1]heptan-1-ylmethoxy)phenyl)-4-amino-7H-pyrrolo[2,3-d]pyrimidin-7-yl)cyclobutyl)methyl)-2-azabicyclo[2.2.1]heptane-3-carboxamide] | 6 nM
4 | CC1(C)CCC(COc2cccc(-c3cn([C@H]4C[C@@H](CN5CC(O)C5)C4)c4ncnc(N)c34)c2)O1 (relative stereo) [Example 41, 1-(cis-3-{4-amino-5-[3-(5,5-dimethyl-tetrahydro-furan-2-ylmethoxy)-phenyl]-pyrrolo[2,3-d]pyrimidin-7-yl}-cyclobutylmethyl)-azetidin-3-ol] | 41 nM
5 | Cn1nnnc1C[C@]1(O)C[C@H](n2cc(-c3cccc(OCC45CCC(CC4)O5)c3)c3c(N)ncnc32)C1 [Example 217, (E)-3-{4-Amino-5-[3-(7-oxa-bicyclo[2.2.1]hept-1-ylmethoxy)-phenyl]-pyrrolo[2,3-d]pyrimidin-7-yl}-1-(1-methyl-1H-tetrazol-5-ylmethyl)-cyclobutanol] | 598 nM
6 | Cc1nccn1C[C@H]1C[C@@H](n2cc(-c3cccc(OCC45CCC(C)(CC4)O5)c3)c3c(N)ncnc32)C1 (relative stereo) [Example 157, 7-[cis-3-(2-methyl-imidazol-1-ylmethyl)-cyclobutyl]-5-[3-(4-methyl-7-oxa-bicyclo[2.2.1]hept-1-ylmethoxy)-phenyl]-7H-pyrrolo[2,3-d]pyrimidin-4-ylamine] | 106 to 448 nM
7 | CC1(OC(=O)NC[C@H]2C[C@@H](n3cc(-c4cccc(OCC56CCC(CC5)O6)c4)c4c(N)ncnc43)C2)CC1 [Example 107] | 21 nM
8 | Nc1ncnc2c1c(-c1cccc(OCC34CCC(CC3)O4)c1)cn2C1CCC(N2CCC(O)C2)CC1 [Example 127, (S)-1-((1S,4S)-4-(5-(3-(7-oxabicyclo[2.2.1]heptan-1-ylmethoxy)phenyl)-4-amino-7H-pyrrolo[2,3-d]pyrimidin-7-yl)cyclohexyl)pyrrolidin-3-ol] | 374 nM
9 | Nc1ncnc2c1c(-c1cccc(OCC34CCC(CC3)O4)c1)cn2C1CCC(O)(CNC2CC2)CC1 [Example 117, (1R,4R)-4-(5-(3-(7-oxabicyclo[2.2.1]heptan-1-ylmethoxy)phenyl)-4-amino-7H-pyrrolo[2,3-d]pyrimidin-7-yl)-1-((cyclopropylamino)methyl)cyclohexanol] | 160 nM
10 | NC(=O)[C@@H]1[C@H](O)CCN1C[C@H]1C[C@H](n2cc(-c3cccc(OCC4CCCO4)c3)c3c(N)ncnc32)C1 (relative stereo) [Example 91, (2S,3R)-1(trans-((1R,3S)-3-(4-amino-5-(3-(tetrahydrofuran-2-yl)methoxy)phenyl)-7H-pyrrolo[2,3-d]pyrimidin-7-yl)cyclobutyl)methyl-3-hydroxylpyrrolidine-2-carboxamide] | 108 nM
11 | NC(=O)[C@H]1CCCN1C[C@H]1C[C@H](n2cc(-c3cccc(OCC4CCCO4)c3)c3c(N)ncnc32)C1 (stereo partly drawn) [Example 87, (R)-1-(trans-3-(4-amino-5-[3-(tetrahydro-furan-2-ylmethoxy)-phenyl]-pyrrolo[2,3-d]pyrimidin-7-yl}-cyclobutylmethyl)-pyrrolidine-2-carboxylic acid amide] | 116 nM
12 | CN1CCN(C[C@H]2CC[C@@H](n3cc(-c4cccc(OCC56CCC(CC5)O6)c4)c4c(N)ncnc43)CC2)CC1 [Example 113, 5-(3-(7-oxabicyclo[2.2.1]heptan-1-ylmethoxy)phenyl)-7-((1S,4S)-4-((4-methylpiperazin-1-yl)methyl)cyclohexyl)-7H-pyrrolo[2,3-d]pyrimidin-4-amine] | 178 nM
13 | Nc1ncnc2c1c(-c1cccc(OCC3CCCCO3)c1)cn2[C@H]1C[C@@H](CN2CC(O)C2)C1 (relative stereo) [Example 28, 1-(cis-3-{4-amino-5-[3-(tetrahydro-pyran-2-ylmethoxy)-phenyl]-pyrrolo[2,3-d]pyrimidin-7-yl}-cyclobutylmethyl)-azetidin-3-ol] | 294 nM
14 | Nc1ncnc2c1c(-c1cccc(OCC34CCC(CC3)O4)c1)cn2[C@H]1CC[C@@H](NC(=O)CC(F)(F)F)CC1 [Example 144, N-((1S,4S)-4-(5-(3-(7-oxabicyclo[2.2.1]heptan-1-ylmethoxy)phenyl)-4-amino-7H-pyrrolo[2,3-d]pyrimidin-7-yl)cyclohexyl)-3,3,3-trifluoropropanamide] | 593 nM
15 | CC1(C)CCC(COc2cccc(-c3cn(C4CC(CN5CC(F)C5)C4)c4ncnc(N)c34)c2)O1 (stereo not drawn) [Example 40, 5-(cis-3-((5,5-dimethyltetrahydrofuran-2-yl)methoxy)phenyl)-7-(3-((3-fluoroazetidin-1-yl)methyl)cyclobutyl)-7H-pyrrolo[2,3-d]pyrimidin-4-amine] | 39 to 52 nM
16 | Nc1ncnc2c1c(-c1cccc(OCC34CCC(CC3)O4)c1)cn2[C@H]1CC[C@@H](CN2CC[S+]([O-])CC2)CC1 [Example 115, 5-[3-(7-Oxa-bicyclo[2.2.1]hept-1-ylmethoxy)-phenyl]-7-cis-[4-(1-oxo-1λ4-thiomorpholin-4-ylmethyl)-cyclohexyl]-7H-pyrrolo[2,3-d]pyrimidin-4-ylamine] | 287 nM
17 | CC(=O)N[C@H]1C[C@@H](n2cc(-c3cccc(OCC45CCC(CC4)O5)c3)c3c(N)ncnc32)C1 (relative stereo) [Example 223, N-(cis-3-{4-amino-5-[3-(7-oxa-bicyclo[2.2.1]hept-1-ylmethoxy)-phenyl]-pyrrolo[2,3-d]pyrimidin-7-yl}-cyclobutyl)-acetamide] | 308 nM
18 | Nc1nccn2c1c(-c1cccc(OCC3CCCCO3)c1)nc2[C@H]1C[C@@H](CN2CCS(=O)(=O)CC2)C1 (stereo partly drawn) [Example 30, 3-[cis-3-(1,1-Dioxothiomorpholin-4-ylmethyl)-cyclobutyl]-1-[3-(tetrahydro-pyran-2-ylmethoxy)-phenyl]-imidazo[1,5-a]pyrazin-8-ylamine] | 254 nM
19 | Nc1ncnc2c1c(-c1cccc(OCC34CCC(CC3)O4)c1)cn2[C@H]1C[C@@H](N2CC3CC2CN3CCO)C1 (relative stereo) [Example 174, 2-[5-(cis-3-{4-amino-5-[3-(7-oxa-bicyclo[2.2.1]hept-1-ylmethoxy)-phenyl]-pyrrolo[2,3-d]pyrimidin-7-yl}cyclobutyl)-2,5-diaza-bicyclo[2.2.1]hept-2-yl]-ethanol] | 303 nM
20 | Nc1ncnc2c1c(-c1cccc(OCC34CCC(CC3)O4)c1)cn2C1CC(CN2CCC2)C1 (centres unmarked) [Example 23, 7-(3-azetidin-1-ylmethyl-cyclobutyl)-5-[3-(7-oxa-bicyclo[2.2.1]hept-1-ylmethoxy)-phenyl]-7H-pyrrolo[2,3-d]pyrimidin-4-ylamine] | 45 to 60 nM
21 | CS(=O)(=O)N1CCN([C@H]2C[C@@H](n3cc(-c4cccc(OCC56CCC(CC5)O6)c4)c4c(N)ncnc43)C2)CC1 (relative stereo) [Example 171, 7-[cis-3-(4-methanesulfonyl-piperazin-1-yl)-cyclobutyl]-5-[3-(7-oxa-bicyclo[2.2.1]hept-1-ylmethoxy)-phenyl]-7H-pyrrolo[2,3-d]pyrimidin-4-ylamine] | 33 nM
22 | CC1(C)CCC(COc2cccc(-c3cn([C@H]4C[C@@H](CN5CCC[C@H]5C(N)=O)C4)c4ncnc(N)c34)c2)O1 (stereo partly drawn) [Example 50, (S)-1-(cis-3-{4-amino-5-[3-(5,5-dimethyl-tetrahydro-furan-2-ylmethoxy)-phenyl]-pyrrolo[2,3-d]pyrimidin-7-yl}-cyclobutylmethyl)-pyrrolidine-2-carboxylic acid amide] | 8 nM
23 | Nc1ncnc2c1c(-c1cccc(OCC34CCC(CC3)O4)c1)cn2[C@H]1CC[C@@H](N2CC[C@@H](O)C2)CC1 [Example 128, (R)-1-((1S,4S)-4-(5-(3-(7-oxabicyclo[2.2.1]heptan-1-ylmethoxy)phenyl)-4-amino-7H-pyrrolo[2,3-d]pyrimidin-7-yl)cyclohexyl)pyrrolidin-3-ol] | 150 nM
24 | NC(=O)[C@H]1CCCN1C[C@H]1C[C@@H](n2cc(-c3cccc(OCC4CCCO4)c3)c3c(N)ncnc32)C1 (stereo partly drawn) [Example 81, (R)-1-(cis-3-{4-amino-5-[3-(tetrahydro-furan-2-ylmethoxy)-phenyl]-pyrrolo[2,3-d]pyrimidin-7-yl}-cyclobutylmethyl)-pyrrolidine-2-carboxylic acid amide] | 157 nM
25 | Nc1ncnc2c1c(-c1cccc(OC[C@@H]3CCCO3)c1)cn2[C@H]1C[C@@H](N2CC[S+]([O-])CC2)C1 [Example 234, 7-[cis-3-(1-oxo-thiomorpholin-4-yl)-cyclobutyl]-5-{3-[(S)-1-(tetrahydro-furan-2-yl)methoxy]-phenyl}-7H-pyrrolo[2,3-d]pyrimidin-4-ylamine] | 309 nM
26 | CC1(C)CCC(COc2cccc(-c3cn(C4CCC(N5CCC[C@H]5C(N)=O)CC4)c4ncnc(N)c34)c2)O1 (stereo partly drawn) [Example 69, (S)-1-(4-{4-amino-5-[3-(5,5-dimethyl-tetrahydro-furan-2-ylmethoxy)-phenyl]-pyrrolo[2,3-d]pyrimidin-7-yl}-cyclohexyl)-pyrrolidine-2-carboxylic acid amide] | 388 nM
